Measurements published in patent publication US20180028516A1, “METHODS AND DEVICES FOR THE TREATMENT OF OCULAR DISEASES IN HUMAN SUBJECTS” (CLEARSIDE BIOMEDICAL, INC., priority 2012, published 2018).
Entries after “also recorded” stand apart in the source; their conditions may differ.

Key:
[1] = test system: LPS-induced acute posterior uveitis; experiment: Ocular inflammatory scores in LPS-induced porcine uveitis (Example 13); settings: for mean cumulative inflammatory scores compared with Group 1 (BSS IVT/vehicle SCS): Days 1, 2, and 3
Protocol: A totalof 20 domestic wearrling pigs (Sus sergfir domesticus), male or female, (12-20 kg) were used in this study. Only the left eye was tested in this study; the right eye was not injected, examined, or treated. All injections were performed with the pigs anesthetized (intramuscular Telazol-Ketamine-Xylazine and isoflorane in oxygen via mask) and the eve prepared aseptically (sterile 5% betadine solution followed by irrigation with sterile eyewash).
Twenty-four hours prior to SCS or IVT injection of TA or vehicle (Day-1), 100 ng of lipopolysaccharide (ITS; E. coli 055:B55; Sigma, Inc. St. Louis, Mo.) in 100 μL BSS (Balanced Salt Solution, Alcon Laboratories, Inc., Forth Worth, Tex.), was injected using a 27 gauge needle into the posterior central vitreous.
Twenty-four hours after the LPS injection (Day 0), 0.2 mg or 2.0 mg of commercially-available TA (Triesence®; Alcon Laboratories, Inc, Forth Worth, Tex.) or vehicle was injected either intravitreally (27 gauge needle) or into the SCS (33 gauge, 850 μm microneedle) in eyes prepared aseptically (Table 7). The dose of TA was selected to represent a typical therapeutic dose (e.g., 2.0 mg) and a dose 10 times less to compare therapeutic effect.
All injections were made superiorly, approximately 5-6 mm posterior to the limbus. […] TA was diluted using vehicle to provide a low dose (0.2 mg/100 μL) or high dose (2.0 mg/100 μL). The vehicle (100 uL) was also used in the control groups, but without TA.
A Hackett-McDonald microscopic ocular inflammatory scoring system, modified for use in pigs (instead of New Zealand White rabbits) as described below, was used to evaluate the ocular anterior segment and anterior vitreous. Scores of the conjunctiva (congestion, swelling, discharge, 0-4); aqueous flare (0-3); pupillary light reflex (0-2); iris involvement (0-4); cornea (involvement and area, 0-4); pannus (vascularization, 0-2); and anterior vitreal cellular infiltrate (0-4) were summed to provide a single inflammatory score for each animal for each examination. Using a portable slit lamp biomicroscope (Zeiss HSO-10, Carl Zeiss Meditec, Inc. USA), ocular inflammatory scores were evaluated at Day -1 (prior to LPS injection), at Day 0 (prior to vehicle or TA injection), then at 1, 2 and 3 days after injection,
For histologic grading, two independent observers masked to the treatment group evaluated each eye at each time point and the average resulting scores for each animal were used for analysis, Parametric normally distributed data (i.e., IOP, ERG, retinal thickness, cell counts, protein concentration) were compared by time point for each group using 1-way ANOVA models with Tukey-Kramer post-hoc analysis. For non-parametric data (i.e., clinical scores, histologic grades), Wilcoxon tests were conducted per animal by time point. Differences were considered significant at P<0.05. Results and probAilities were calculated using computerized statistical software (JMP 10, SAS Inc. Cary, N.C.).

[2] = test system: model of acute posterior uveitis; experiment: Porcine model of acute posterior uveitis, Hackett/McDonald scoring (Example 12); assay type: in vivo, pigs
Protocol: In this study, the effects of microneedle injection of triamcinolone acetonide (TA) into the suprachoroidal space (SCS) were compared to the effects of intravitreal (IVT) TA injection in a model of acute posterior uveitis.
Ten weanling pigs had IVT injection with BSS or lipopolysaccharide (LPS) followed 24 hours later with an injection of 0.2 mg or 2.0 mg of TA into the SCS or by IVT. The SCS was accessed using hollow microneedles provided herein. A measurement of each eye under the Hackett/McDonald scoring system was performed on −1, 0, and 3 days after treatment. Pigs were then euthanized, aqueous and vitreous humor collected for cell counts and protein levels, and the eyes were processed for histopathology.

[3] = Ocular histopathology after SCS TA (Example 9); assay type: in vivo, New Zealand White rabbit
Protocol: In this study, the ocular tolerability and toxicokinetics of suprachoroidal administration of triamcinolone acetonide (TA) using a microneedle in a GLP study in the New Zealand White rabbit.
On Day 0, New Zealand White (NZW) rabbits were administered a single bilateral supraehoroidal injection of vehicle, 3.2 mg (80 μL) or 5.2 mg (130 μL) of TA (Triesence®, Alcoa labs) using a 33 g 750 μm microneedle. Clinical observations, slit lamp biomicroscopy with McDonald-Shadduck scoring, intraocular pressure assessment (IOP), electroretinography (ERG), and systemic exposure were assessed up to 26 weeks post-dose. Animals were sacrificed on Day 1, Week 13, and Week 26 for macroscopic observations, ocular toxicokinetics, and ocular histopathology.

[4] = test system: LPS-induced acute posterior uveitis; experiment: Wide-field ocular fundus digital photography in porcine uveitis study (Example 13); assay type: in vivo, domestic weanling pigs; settings: 3 days after treatment
Description: On study days −1, 0 and 3, with the animals anesthetized arid pupils dilated with tropicamide 1%, the ocular fundus was photographed using standardized illumination and focus by a wide-field digital imaging system (Retcam II, Clarity Medical Systems, Pleasanton, Calif.).

[5] = Clinical observations and tolerability, SCS vs IVT TA (Example 10); assay type: in vivo, New Zealand White rabbit
Protocol: In this study, the ocular and systemic pharmacokinetics (PK) of triar cinolone acetonide (TA) in the New Zealand White rabbit following intravitreal […] injection or administration into the suprachoroidal space (SCS) using a hollow rnicroneedle were evaluated.
On Day 0, male rabbits (5 per group) received a single bilateral administration of 4 mg TA (100 μL Triesence triamcinolone formulationAlcon Labs) via SCS injection using a 33 g 750 μm microneedle or an IVT injection using a standard 30 g needle. The study design is shown below in Table 4.
Clinical observations, body weights, and intraocular pressure (IOP) were assessed up to 13 weeks post-dose. Plasma and ocular matrixes (aqueous humor (AH), lens, iris/ciliary body (ICB), vitreous humor (VH), sclera/choroid (SC), and retina) were sampled on Days 1, 14, 28, 56, and 91. Plasma (LLOQ 0.5 ng/mL) and ocular matrixes (LLOQ 2 -15 ng/mL) were analyzed using LC-MS/MS, and resulting data were assessed for noncompartmentat PK parameters.

[6] = test system: subretinal endotoxin-induced model of posterior segment uveitis; experiment: Subretinal endotoxin-induced model of posterior segment uveitis, pretreatment with SCS or IVT TA (Example 11); assay type: in vivo, New Zealand White rabbits
Protocol: In this study, the effects of pretreatment with suprachoroidal or intravitreal triamcinolone acetonide (TA) in a subretinal endotoxin-induced model of posterior segment uveitis in New Zealand White rabbits was evaluated.
On Day 1, female rabbits (4 eyes/group) received a single unilateral injection of vehicle or 4 mg TA (Triesence®, 40 mg/mL suspension, Alcon Labs) into the suprachoroidal space (SCS) using a 33 g 750 μm microneedle, or a 4 mg TA IVT injection using a standard 30 g needle. On Day 6, each animal received a single unilateral subretinal injection of lipopolysaccharide (LPS, 20-30 μL, 203 μg/g of 1% sodium hylauronate) to induce ocular inflammation in the treated eye. Animals were monitored for 22 days following dose administration. Endpoints included body weights, ocular observations, slit lamp biomicroscopy with McDonald-Shadduck scoring and photography, indirect ophthalmoscopy, fundus photography, intraocular pressure (IOP), and histopathology. A summary of the study design is shown below, in Table 6.

In the case of `CC1(C)O[C@@H]2C[C@H]3[C@@H]4CCC5=CC(=O)C=C[C@]5(C)[C@@]4(F)[C@@H](O)C[C@]3(C)[C@]2(C(=O)CO)O1` [TA, triamcinolone acetonide], the “effectiveness in reducing acute ocular inflammation” value ([1]; 0.2 mg TA IVT) is reported as “less effective”, the “mean cumulative inflammatory scores compared with Groups 1, 3, 4 and 6” value ([1]; 0.2 mg TA IVT (Group 5), 24 hours after treatment (Day 1)) is reported as “significantly higher” and the “mean cumulative inflammatory scores compared with SCS TA (Groups 3 and 4) and Group 1” value ([1]; 0.2 mg TA IVT, 48 and 72 hours after treatment) is reported as “significantly higher mean scores”. For the same compound, the “mean cumulative inflammatory scores compared with Group 1 (BSS IVT/vehicle SCS)” value ([1]; 0.2 mg TA SCS (Group 3)) was “not significantly different”, the “mean cumulative inflammatory scores compared with Group 1 (BSS IVT/vehicle SCS)” value ([1]; 2.0 mg TA SCS (Group 4)) was “not significantly different” and the “effectiveness in reducing inflammation compared with 2.0 mg TA IVT injection” value ([1]; SCS injection of 0.2 mg and 2.0 mg of TA) was “as effective”. The “decrease in effective dose when the drug is delivered to the SCS” value ([1]; SCS vs IVT) was 10 fold, the “dose of TA administered to the SCS giving a reduction in inflammation within 3 days, as share of the dose required intravitreally” value ([2]; 0.2 mg SCS vs 2 mg IVT) was 10% and the “inflammatory response (mean Hackett/McDonald ocular scores)” value ([2]; 2 mg TA SCS after LPS, vs vehicle) was “significant reduction; also recorded: significantly reduces”. For the same compound, the “adverse effects related to the method of administration or treatments, as assessed by histopathology” value ([3]; 3.2 or 5.2 mg TA SCS) was “no adverse effects”, the “inflammatory cells and test article in the suprachoroidal space (histopathology)” value ([3]; 3.2 or 5.2 mg TA SCS) was “observed in the suprachoroidal space of TA-treated animals on Day 1 but not Week 13” and the “Ciliary process edema, animals with finding” value (“Ciliary process edema, animals” for short) ([3]; Day 1, 3.2 mg TA/eye SCS, F) was 4. For the same compound, the “Corneal epithelial thinning, animals with finding” value (shortened to “Corneal epithelial thinning”) ([3]; Day 1, 3.2 mg TA/eye SCS, F) was 2, the “Inflammatory cells in SCS, animals with finding” value (from here on “Inflammatory cells in SCS”) ([3]; Day 1, 3.2 mg TA/eye SCS, F) was 4 and the “TA in SCS, animals with finding” value ([3]; Day 1, 3.2 mg TA/eye SCS, F) was 5. For the same compound, the “Ciliary process edema, animals” value ([3]; Day 1, 3.2 mg TA/eye SCS, M) was 4, the “Conjunctival subepithelial inflammatory cells, animals with finding” value ([3]; Day 1, 3.2 mg TA/eye SCS, M) was 3 and the “Corneal epithelial thinning” value ([3]; Day 1, 3.2 mg TA/eye SCS, M) was 3. The “Inflammatory cells in SCS” value ([3]; Day 1, 3.2 mg TA/eye SCS, M) was 5, the “TA in SCS, animals with finding” value ([3]; Day 1, 3.2 mg TA/eye SCS, M) was 5 and the “Ciliary process edema, animals” value ([3]; Day 1, 5.2 mg TA/eye SCS, F) was 5. For the same compound, the “Conjunctival subepithelial inflammatory cells, animals with finding” value ([3]; Day 1, 5.2 mg TA/eye SCS, F) was 3, the “Corneal epithelial thinning” value ([3]; Day 1, 5.2 mg TA/eye SCS, F) was 1 and the “Inflammatory cells in SCS” value ([3]; Day 1, 5.2 mg TA/eye SCS, F) was 5. For the same compound, the “Small area of retinal damage (attributed to needle insertion), animals with finding” value ([3]; Day 1, 5.2 mg TA/eye SCS, F) was 1, the “TA in SCS, animals with finding” value ([3]; Day 1, 5.2 mg TA/eye SCS, F) was 5 and the “Ciliary process edema, animals” value ([3]; Day 1, 5.2 mg TA/eye SCS, M) was 4. For the same compound, the “Conjunctival subepithelial inflammatory cells, animals with finding” value ([3]; Day 1, 5.2 mg TA/eye SCS, M) was 2, the “Corneal epithelial thinning” value ([3]; Day 1, 5.2 mg TA/eye SCS, M) was 3 and the “Inflammatory cells in SCS” value ([3]; Day 1, 5.2 mg TA/eye SCS, M) was 5. For the same compound, the “TA in SCS, animals with finding” value ([3]; Day 1, 5.2 mg TA/eye SCS, M) was 4, the “Ciliary process edema, animals” value ([3]; Week 13, 3.2 mg TA/eye SCS, F) was 1 and the “Dilated choroidal vessels, animals with finding” value ([3]; Week 13, 3.2 mg TA/eye SCS, F) was 1. The “Small area of retinal damage (attributed to needle insertion), animals with finding” value ([3]; Week 13, 3.2 mg TA/eye SCS, F) was 1, the “Ciliary process edema, animals” value ([3]; Week 13, 3.2 mg TA/eye SCS, M) was 3 and the “Ciliary process edema, animals” value ([3]; Week 13, 5.2 mg TA/eye SCS, F) was 3. For the same compound, the “Ciliary process edema, animals” value ([3]; Week 13, 5.2 mg TA/eye SCS, M) was 1, the “Dilated choroidal vessels, animals with finding” value ([3]; Week 13, 5.2 mg TA/eye SCS, M) was 1 and the “ocular fundus images (vitreal cloudiness)” value (shortened to “ocular fundus images”) ([4]; 0.2 mg TA IVT) was “only slightly improved over vehicle treated eyes”. The “ocular fundus images” value ([4]; 0.2 mg TA SCS) was “less vitreal cloudiness and similar to the pre-treatment fundus appearance; also recorded: near pre-treatment appearance”, the “ocular fundus images” value ([4]; 2.0 mg TA IVT) was “less vitreal cloudiness and similar to the pre-treatment fundus appearance; also recorded: near pre-treatment appearance” and the “ocular fundus images” value ([4]; 2.0 mg TA SCS) was “less vitreal cloudiness and similar to the pre-treatment fundus appearance; also recorded: near pre-treatment appearance”. For the same compound, the “adverse effects related to treatment or method of administration” value ([5]; SCS and IVT, 4 mg TA) was “no observed adverse effects”, the tolerability ([5]; both IVT and SCS TA, 4 mg, albino rabbit) was “well tolerated” and the “Iris vessel dilation and tortuosity compared with the SCS vehicle group” value ([6]; 4 mg TA IVT) was “reduced to a lesser extent”. The “Vitritis, aqueous flare, and cellularity compared to SCS vehicle eyes” value ([6]; 4 mg TA IVT) was “substantially less severe”, the “inflammation as assessed histopathologically compared with the vehicle group” value ([6]; 4 mg TA IVT) was “marked reduction” and the “Iris vessel dilation and tortuosity compared with the SCS vehicle group” value ([6]; 4 mg TA SCS) was “reduced”. For the same compound, the “Vitritis, aqueous flare, and cellularity compared to SCS vehicle eyes” value ([6]; 4 mg TA SCS) was “substantially less severe”, the “inflammation as assessed histopathologically compared with the vehicle group” value ([6]; 4 mg TA SCS) was “marked reduction” and the “effectiveness in reducing the inflammatory response, SCS vs IVT” value ([6]; 4 mg TA SCS by hollow microneedle) was “as effective as 4 mg IVT TA”. The “overall inflammatory response / inflammatory endpoints compared to vehicle control” value ([6]; 4 mg TA SCS, pretreatment Day 1, LPS Day 6) was “significant reduction”.
